Assay results: patent US11326164B2, “Trimethylglycylglycerin compositions and their use in developing anti-cancer drugs and RNA vaccines” (WJWU & LYNN Institute for Stem Cell Research, priority 2019, dated 2022)

Tested on: Human lung epithelial cell line and lung cancer cell lines
Test: cell cultivation in TMGG (tolerance)
Type: cell-based
Conditions: cultivated in 0.01˜3.0M TMGG with all necessary supplements, up to 48 hours
Protocol: Human lung epithelial cell line and lung cancer cell lines were purchased from ATCC and cultivated according to manufacturer's protocols at 37° C. under 5% CO2. Cells were passaged at about 50%-70% confluence by exposing the cells to trypsin/EDTA for about 1 min and then rinsing two times in HBSS containing trypsin inhibitor. The detached cells were replated at 1:5 dilutions in fresh EpiLife medium with HKGS supplements. For miRNA transfection, pri-/pre-miR-302 prepared from Example 1 was dissolved in 0.01˜5.0M, preferably 0.1˜2.0M, of TMGG solution at a desired concentration up to 5 mg/ml and then directly applied to cell culture medium based on the miRNA amount needed. For example, to deliver […] pri-/pre-miR-302, we would need to add 40 μl of the TMGG-dissolved pri-/pre-miR-302 (at 5 mg/ml) into the cell culture medium and then mix well with the cells.

Substance: trimethylglycylglycerins [TMGG]
- adverse effect on cultivated cells: not showing any adverse effect
